The supplement of paper PMC10307832

Legend:
Test in all cases: relative viability (nuclei count vs DMSO), 5 days (fraction); higher = more cells survive
Venetoclax + Olaparib = compound: CC1(C)CCC(CN2CCN(c3ccc(C(=O)NS(=O)(=O)c4ccc(NCC5CCOCC5)c([N+](=O)[O-])c4)c(Oc4cnc5[nH]ccc5c4)c3)CC2)=C(c2ccc(Cl)cc2)C1 [Venetoclax] + O=C(c1cc(Cc2n[nH]c(=O)c3ccccc23)ccc1F)N1CCN(C(=O)C2CC2)CC1 [Olaparib] (partner 8 µM)
In short: (§1)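 One day after seeding in 1536-well plates, lung cancer cell lines were dosed by pin tool. Dosing was either single-drug or a fixed anchor-drug dose plus five library-drug doses (not always all listed) in √10 steps. After 5 days, nuclei were stained in one fix-and-stain step and counted on 4× images, and relative viability is the nuclei count of treated wells over that of vehicle wells, given as the median of duplicate plates.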

Selumetinib + Vorinostat = compound: Cn1cnc2c(F)c(Nc3ccc(Br)cc3Cl)c(C(=O)NOCCO)cc21 [Selumetinib] + O=C(CCCCCCC(=O)Nc1ccccc1)NO [Vorinostat] (partner 1 µM)
In short: as §1

Venetoclax + Pemetrexed = compound: CC1(C)CCC(CN2CCN(c3ccc(C(=O)NS(=O)(=O)c4ccc(NCC5CCOCC5)c([N+](=O)[O-])c4)c(Oc4cnc5[nH]ccc5c4)c3)CC2)=C(c2ccc(Cl)cc2)C1 [Venetoclax] + Nc1nc2[nH]cc(CCc3ccc(C(=O)N[C@@H](CCC(=O)O)C(=O)O)cc3)c2c(=O)[nH]1 [Pemetrexed] (partner 0.2 µM)
In short: as §1

Selumetinib + Pictilisib = compound: Cn1cnc2c(F)c(Nc3ccc(Br)cc3Cl)c(C(=O)NOCCO)cc21 [Selumetinib] + CS(=O)(=O)N1CCN(Cc2cc3nc(-c4cccc5[nH]ncc45)nc(N4CCOCC4)c3s2)CC1 [Pictilisib] (partner 1 µM)
In short: as §1

Cell Line	relative viability (Venetoclax + Olaparib; first compound 0.01 µM)	relative viability (Venetoclax + Olaparib; first compound 0.03162 µM)	relative viability (Venetoclax + Olaparib; first compound 0.1 µM)	relative viability (Venetoclax + Olaparib; first compound 0.3162 µM)	relative viability (Venetoclax + Olaparib; first compound 1 µM)	relative viability (Selumetinib + Vorinostat; first compound 0.02 µM)	relative viability (Selumetinib + Vorinostat; first compound 0.06325 µM)	relative viability (Selumetinib + Vorinostat; first compound 0.2 µM)	relative viability (Selumetinib + Vorinostat; first compound 0.6325 µM)	relative viability (Venetoclax + Pemetrexed; first compound 0.01 µM)	relative viability (Venetoclax + Pemetrexed; first compound 0.03162 µM)	relative viability (Venetoclax + Pemetrexed; first compound 0.1 µM)	relative viability (Venetoclax + Pemetrexed; first compound 0.3162 µM)	relative viability (Venetoclax + Pemetrexed; first compound 1 µM)	relative viability (Selumetinib + Pictilisib; first compound 0.02 µM)	relative viability (Selumetinib + Pictilisib; first compound 0.06325 µM)	relative viability (Selumetinib + Pictilisib; first compound 0.2 µM)	relative viability (Selumetinib + Pictilisib; first compound 0.6325 µM)
LU99A	0.301	0.287	0.255	0.283	0.254	0.521	0.472	0.476	0.501	0.177	0.239	0.163	0.172	0.178	0.34	0.317	0.412	0.351
LXF-289	1.07	1.09	1.1	0.993	0.94	0.734	0.668	0.595	0.661	0.986	0.948	0.782	0.873	0.79	0.735	0.615	0.537	0.552
NCI-H23	0.311	0.26	0.367	0.376	0.304	0.649	0.561	0.557	0.668	0.671	0.747	0.597	0.76	0.588	0.484	0.344	0.352	0.29
NCI-H522	0.561	0.611	0.612	0.621	0.688	0.855	0.846	0.851	0.921	1.13	1.01	0.879	1.19	0.759				
NCI-H727	0.758	0.801	0.803	0.836	0.641	1.01	0.741	0.709	0.553						0.309	0.214	0.155	0.234
NCI-H1299	0.975	0.991	1.01	0.927	0.943										0.673	0.51	0.389	0.359
NCI-H1563										0.847	0.902	0.798	0.744	0.888	0.616	0.587	0.753	0.638
NCI-H1648		0.766	0.698	0.841	0.713		0.596	0.423	0.367		0.774	0.64	0.626	0.718				
NCI-H1703	0.35	0.328	0.333	0.44	0.476										0.231	0.193	0.229	0.283
NCI-H1792	0.286	0.463	0.384	0.561	0.339					0.416	0.998	0.7	0.815	0.618	0.238	0.197	0.196	0.144
NCI-H2342	0.462	0.554	0.543	0.401	0.475	0.784	0.746	0.737	0.812	0.872	0.784	0.747	0.738	0.717				
SW 900	0.76	0.866	0.841	0.845	0.819	0.423	0.399	0.409	0.588	0.478	0.51	0.465	0.499	0.489				
